# PubChem BioAssay AID1963844 (Molecular Pharmacology Branch, DTP, NCI, 2024)
# Tested on: 422866-222-R5-J1-PDC complex spheroid viability
# Experiment: Anticancer human tumor 422866-222-R5-J1-PDC patient-derived pancreatic adenocarcinoma cell line growth inhibition [POLQ]
# Conditions: for IC50: curve of first compound; for viability, T/C: stronger effect = lower value
# How it was run: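 Patient-derived tumour cells were co-cultured with HUVEC and mesenchymal stem cells as multicellular spheroids at 37 °C. They were treated with POLQ inhibitors (novobiocin, ART-558, RP6685) alone or combined with other agents. Top concentrations were at or near clinical Cmax (otherwise 10 microM; SN-38 at 1 microM), decreasing in half-log steps.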
# [1] = second compound 0.0316 µM, first compound 0.0316 µM
# [2] = second compound 0.0316 µM, first compound 0.1 µM
# [3] = second compound 0.0316 µM, first compound 0.316 µM
# [4] = second compound 0.0316 µM, first compound 1 µM
# [5] = second compound 0.0316 µM, first compound 3.16 µM
# [6] = second compound 0.0316 µM, first compound 10 µM
# [7] = second compound 0.1 µM, first compound 0.0316 µM
# [8] = second compound 0.1 µM, first compound 0.1 µM
# [9] = second compound 0.1 µM, first compound 0.316 µM
# [10] = second compound 0.1 µM, first compound 1 µM
# [11] = second compound 0.1 µM, first compound 3.16 µM
# [12] = second compound 0.1 µM, first compound 10 µM
# [13] = second compound 0.316 µM, first compound 0.0316 µM
# [14] = second compound 0.316 µM, first compound 0.1 µM
# [15] = second compound 0.316 µM, first compound 0.316 µM
# [16] = second compound 0.316 µM, first compound 1 µM
# [17] = second compound 0.316 µM, first compound 3.16 µM
# [18] = second compound 0.316 µM, first compound 10 µM
# [19] = second compound 1 µM, first compound 0.0316 µM
# [20] = second compound 1 µM, first compound 0.1 µM
# [21] = second compound 1 µM, first compound 0.316 µM
# [22] = second compound 1 µM, first compound 1 µM
# [23] = second compound 1 µM, first compound 3.16 µM
# [24] = second compound 1 µM, first compound 10 µM
# [25] = second compound 3.16 µM, first compound 0.0316 µM
# [26] = second compound 3.16 µM, first compound 0.1 µM
# [27] = second compound 3.16 µM, first compound 0.316 µM
# [28] = second compound 3.16 µM, first compound 1 µM
# [29] = second compound 3.16 µM, first compound 3.16 µM
# [30] = second compound 3.16 µM, first compound 10 µM
# [31] = second compound 10 µM, first compound 0.0316 µM
# [32] = second compound 10 µM, first compound 0.1 µM
# [33] = second compound 10 µM, first compound 0.316 µM
# [34] = second compound 10 µM, first compound 1 µM
# [35] = second compound 10 µM, first compound 3.16 µM
# [36] = second compound 10 µM, first compound 10 µM
# 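Also: spheroids exposed to compounds for one week before readout.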
# 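For viability, T/C in this document: percent of DMSO vehicle wells luminescence so 100% = untreated viability.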
smiles,measurement,setting,value
COc1ccc([C@@H](O)c2cc(-c3ncnc4cc(N5CCOCC5)ccc34)c(F)cc2Cl)nn1 + Cc1cccc(N(C)C(=O)C2C(O)CCN2c2nc(C)cc(C(F)(F)F)c2C#N)c1,IC50,second compound 0.0316 µM,2600 nM
same,IC50,second compound 0.1 µM,4620 nM
same,IC50,second compound 0.316 µM,2420 nM
same,IC50,second compound 1 µM,1920 nM
same,IC50,second compound 3.16 µM,1650 nM
same,IC50,second compound 10 µM,2280 nM
same,"viability, T/C",[1],91.6%
same,"viability, T/C",[2],92.2%
same,"viability, T/C",[3],77.4%
same,"viability, T/C",[4],62.1%
same,"viability, T/C",[5],49.1%
same,"viability, T/C",[6],35.5%
same,"viability, T/C",[7],92%
same,"viability, T/C",[8],81.3%
same,"viability, T/C",[9],83.2%
same,"viability, T/C",[10],64.5%
same,"viability, T/C",[11],54.5%
same,"viability, T/C",[12],42.3%
same,"viability, T/C",[13],108%
same,"viability, T/C",[14],86.3%
same,"viability, T/C",[15],70.9%
same,"viability, T/C",[16],61.3%
same,"viability, T/C",[17],43.9%
same,"viability, T/C",[18],41.4%
same,"viability, T/C",[19],89.9%
same,"viability, T/C",[20],81.1%
same,"viability, T/C",[21],85.9%
same,"viability, T/C",[22],58.5%
same,"viability, T/C",[23],44.6%
same,"viability, T/C",[24],33.3%
same,"viability, T/C",[25],79.8%
same,"viability, T/C",[26],90.7%
same,"viability, T/C",[27],80.3%
same,"viability, T/C",[28],56.4%
same,"viability, T/C",[29],43.1%
same,"viability, T/C",[30],37.1%
same,"viability, T/C",[31],93.3%
same,"viability, T/C",[32],83.8%
same,"viability, T/C",[33],73.5%
same,"viability, T/C",[34],59%
same,"viability, T/C",[35],46%
same,"viability, T/C",[36],37.6%
COc1cccc(OCCCN)c1-c1cc(Nc2cnc(C#N)cn2)n[nH]1 + Nc1ccc(C#CCN(C(=O)Cc2ncc(C(F)(F)F)cc2C(F)(F)F)c2ccc(F)cc2)nn1,IC50,second compound 0.0316 µM,7.22 nM
same,IC50,second compound 0.1 µM,6.75 nM
same,IC50,second compound 0.316 µM,5.8 nM
same,IC50,second compound 1 µM,5.89 nM
same,IC50,second compound 3.16 µM,5.87 nM
same,IC50,second compound 10 µM,7.34 nM
same,"viability, T/C","second compound 0.0316 µM, first compound 0.00316 µM",82.4%
same,"viability, T/C","second compound 0.0316 µM, first compound 0.01 µM",37.4%
same,"viability, T/C",[1],33.4%
same,"viability, T/C",[2],30.5%
same,"viability, T/C",[3],35.9%
same,"viability, T/C",[4],44.1%
same,"viability, T/C","second compound 0.1 µM, first compound 0.00316 µM",62.6%
same,"viability, T/C","second compound 0.1 µM, first compound 0.01 µM",45.9%
same,"viability, T/C",[7],33.6%
same,"viability, T/C",[8],32.8%
same,"viability, T/C",[9],36.8%
same,"viability, T/C",[10],54.3%
same,"viability, T/C","second compound 0.316 µM, first compound 0.00316 µM",60.3%
same,"viability, T/C","second compound 0.316 µM, first compound 0.01 µM",40.4%
same,"viability, T/C",[13],36.1%
same,"viability, T/C",[14],38.4%
same,"viability, T/C",[15],27.1%
same,"viability, T/C",[16],38%
same,"viability, T/C","second compound 1 µM, first compound 0.00316 µM",68.9%
same,"viability, T/C","second compound 1 µM, first compound 0.01 µM",33.9%
same,"viability, T/C",[19],35%
same,"viability, T/C",[20],38.6%
same,"viability, T/C",[21],30.6%
same,"viability, T/C",[22],29.4%
same,"viability, T/C","second compound 3.16 µM, first compound 0.00316 µM",59.2%
same,"viability, T/C","second compound 3.16 µM, first compound 0.01 µM",42.8%
same,"viability, T/C",[25],38.5%
same,"viability, T/C",[26],29%
same,"viability, T/C",[27],32.2%
same,"viability, T/C",[28],44.8%
same,"viability, T/C","second compound 10 µM, first compound 0.00316 µM",76.1%
same,"viability, T/C","second compound 10 µM, first compound 0.01 µM",40.1%
same,"viability, T/C",[31],37.4%
same,"viability, T/C",[32],36.5%
same,"viability, T/C",[33],29%
same,"viability, T/C",[34],38.6%
CC1COCCN1c1cc(-c2ccnn2C)c2ccnc(-c3ccn[nH]3)c2n1 (stereo not drawn) + Nc1ccc(C#CCN(C(=O)Cc2ncc(C(F)(F)F)cc2C(F)(F)F)c2ccc(F)cc2)nn1,IC50,second compound 0.0316 µM,> 10000 nM
same,IC50,second compound 0.1 µM,> 10000 nM
same,IC50,second compound 0.316 µM,> 10000 nM
same,IC50,second compound 1 µM,10000 nM
same,IC50,second compound 3.16 µM,232 nM
same,IC50,second compound 10 µM,> 10000 nM
same,"viability, T/C",[1],110%
same,"viability, T/C",[2],52.5%
same,"viability, T/C",[3],35.8%
same,"viability, T/C",[4],31.4%
same,"viability, T/C",[5],72.4%
same,"viability, T/C",[6],67.8%
same,"viability, T/C",[7],112%
same,"viability, T/C",[8],49.3%
same,"viability, T/C",[9],44.4%
same,"viability, T/C",[10],37.4%
same,"viability, T/C",[11],45%
same,"viability, T/C",[12],81.1%
same,"viability, T/C",[13],90.7%
same,"viability, T/C",[14],45.4%
same,"viability, T/C",[15],33.7%
same,"viability, T/C",[16],34%
same,"viability, T/C",[17],68.2%
same,"viability, T/C",[18],83.4%
same,"viability, T/C",[19],87%
same,"viability, T/C",[20],62.4%
same,"viability, T/C",[21],38.5%
same,"viability, T/C",[22],29.9%
same,"viability, T/C",[23],61.5%
same,"viability, T/C",[24],73%
same,"viability, T/C",[25],96.6%
same,"viability, T/C",[26],51.6%
same,"viability, T/C",[27],32.6%
same,"viability, T/C",[28],29.8%
same,"viability, T/C",[29],61.5%
same,"viability, T/C",[30],74.2%
same,"viability, T/C",[31],102%
same,"viability, T/C",[32],41.1%
same,"viability, T/C",[33],39.6%
same,"viability, T/C",[34],36.2%
same,"viability, T/C",[35],79.8%
same,"viability, T/C",[36],74.8%
CCc1cc2c(N3CCc4c(cc(Cn5ccnc5)cc4-c4cn(C)nc4C(F)(F)F)C3=O)ccnc2c(OC)n1 + Nc1ccc(C#CCN(C(=O)Cc2ncc(C(F)(F)F)cc2C(F)(F)F)c2ccc(F)cc2)nn1,IC50,second compound 0.0316 µM,> 10000 nM
same,IC50,second compound 0.1 µM,> 10000 nM
same,IC50,second compound 0.316 µM,> 10000 nM
same,IC50,second compound 1 µM,> 10000 nM
same,IC50,second compound 3.16 µM,> 10000 nM
same,IC50,second compound 10 µM,> 10000 nM
same,"viability, T/C",[1],82.5%
same,"viability, T/C",[2],102%
same,"viability, T/C",[3],103%
same,"viability, T/C",[4],119%
same,"viability, T/C",[5],89.2%
same,"viability, T/C",[6],126%
same,"viability, T/C",[7],79.7%
same,"viability, T/C",[8],103%
same,"viability, T/C",[9],112%
same,"viability, T/C",[10],109%
same,"viability, T/C",[11],95.6%
same,"viability, T/C",[12],120%
same,"viability, T/C",[13],85.7%
same,"viability, T/C",[14],85.2%
same,"viability, T/C",[15],79.5%
same,"viability, T/C",[16],128%
same,"viability, T/C",[17],98.9%
same,"viability, T/C",[18],98.3%
same,"viability, T/C",[19],82.8%
same,"viability, T/C",[20],77.3%
same,"viability, T/C",[21],107%
same,"viability, T/C",[22],101%
same,"viability, T/C",[23],113%
same,"viability, T/C",[24],107%
same,"viability, T/C",[25],102%
same,"viability, T/C",[26],90.7%
same,"viability, T/C",[27],92%
same,"viability, T/C",[28],92.7%
same,"viability, T/C",[29],114%
same,"viability, T/C",[30],115%
same,"viability, T/C",[31],92.8%
same,"viability, T/C",[32],115%
same,"viability, T/C",[33],93.7%
same,"viability, T/C",[34],102%
same,"viability, T/C",[35],110%
same,"viability, T/C",[36],106%
